Tests used:
[1] = system: sulfonylurea herbicide-sensitive Scirpus juncoides var. ohwianus; assay: Paddy pot weeding test, flooded, two-leaf stage (Test Example 1); format: in vivo; details: 1 g/are, three weeks after treatment, sensitive biotype, Kyoto Pref.
Excerpt: (§1) A 5 cm×5 cm Jiffy Pot™ was charged with paddy soil, then water was introduced into each pot, seeds of sulfonylurea herbicide-sensitive Scirpus juncoides var. ohwianus, sulfonylurea herbicide-sensitive Lindernia procumbens (Krock.) Philcox, sulfonylurea herbicide-sensitive Lindernia dubia subsp. major Pennell, sulfonylurea herbicide-resistant Scirpus juncoides var. ohwianus, sulfonylurea herbicide-resistant Lindernia procumbens (Krock.) Philcox and sulfonylurea herbicide-resistant Lindernia dubia subsp. major Pennell were sowed therein and cultivated for a prescribed period under flooding conditions. When the plants reached the two-leave stage, the prescribed number of Jiffy Pots where the plants had been grown were transferred to a 150-cm^2 rectangular plastic pot, and water was introduced to a height of 3 cm, and a chemical diluent containing a compound was applied into the pot in an amount of 1 g/are. The chemical diluent was prepared by dissolving 1.5 g compound in 2 L of N,N-dimethylformamide (DMF) containing, 2% (W/V) surfactant Tween™ 20 and then diluting it with water to adjust the total volume to 10 L.

[2] = system: sulfonylurea herbicide-resistant Lindernia procumbens (Krock.) Philcox; assay: as above; format: in vivo; details: 1 g/are, three weeks after treatment, resistant biotype, Tajiri Town, Miyagi Pref.
Excerpt: as §1

[3] = system: sulfonylurea herbicide-resistant Lindernia dubia subsp. major Pennell; assay: as above; format: in vivo; details: 1 g/are, three weeks after treatment, resistant biotype, Kawanishi Town, Yamagata Pref.
Excerpt: as §1

[4] = system: sulfonylurea herbicide-sensitive Lindernia dubia subsp. major Pennell; assay: as above; format: in vivo; details: 1 g/are, three weeks after treatment, sensitive biotype, Makabe Town, Ibaraki Pref.
Excerpt: as §1

[5] = system: sulfonylurea herbicide-sensitive Lindernia procumbens (Krock.) Philcox; assay: as above; format: in vivo; details: 1 g/are, three weeks after treatment, sensitive biotype, Kyoto Pref.
Excerpt: as §1

[6] = system: sulfonylurea herbicide-resistant Scirpus juncoides var. ohwianus; assay: as above; format: in vivo; details: 1 g/are, three weeks after treatment, resistant biotype, Iwamisawa City, Hokkaido
Excerpt: as §1

| SMILES | melting point | S Scirpus juncoides var. ohwianus (effect index) [1] | R Lindernia procumbens (Krock.) Philcox (effect index) [2] | R Lindernia dubia subsp. major Pennell (effect index) [3] | S Lindernia dubia subsp. major Pennell (effect index) [4] | S Lindernia procumbens (Krock.) Philcox (effect index) [5] | R Scirpus juncoides var. ohwianus (effect index) [6] |
| --- | --- | --- | --- | --- | --- | --- | --- |
| CCc1ccc2nc(C)c(S(=O)(=O)NC(=O)Nc3nc(OC)cc(OC)n3)n2n1 [Compound No. 13, 1-(4,6-dimethoxypyrimidin-2-yl)-3-(6-ethyl-2-methylimidazo[1,2-b]pyridazin-3-ylsulfonyl)urea] | 172 to 174 °C | 5 (excellent 81 to 100) | 5 (excellent 81 to 100) | 5 (excellent 81 to 100) | 5 (excellent 81 to 100) | 5 (excellent 81 to 100) | 5 (excellent 81 to 100) |
| CCc1nc2ccc(S(C)(=O)=O)nn2c1NC(=O)NS(=O)(=O)c1nc(OC)cc(OC)n1 [Compound No. 9] | 206 to 208 °C | 5 (excellent 81 to 100) | 3 (moderate 41 to 60) | 5 (excellent 81 to 100) | 5 (excellent 81 to 100) | 5 (excellent 81 to 100) | 5 (excellent 81 to 100) |
| CCSc1ccc2nc(CC)c(S(=O)(=O)NC(=O)Nc3nc(OC)cc(OC)n3)n2n1 [Compound No. 7, 1-(4,6-dimethoxypyrimidin-2-yl)-3-(2-ethyl-6-ethylthioimidazo[1,2-b]pyridazin-3-ylsulfonyl)urea] | 160 to 165 °C (dec.) | 5 (excellent 81 to 100) | 3 (moderate 41 to 60) | 4 (high 61 to 80) | 5 (excellent 81 to 100) | 5 (excellent 81 to 100) | 5 (excellent 81 to 100) |
| CCc1ccc2nc(Cl)c(NC(=O)NS(=O)(=O)c3nc(OC)cc(OC)n3)n2n1 [Compound No. 37] | 162 to 166 °C | 5 (excellent 81 to 100) | 5 (excellent 81 to 100) | 5 (excellent 81 to 100) | 5 (excellent 81 to 100) | 5 (excellent 81 to 100) | 5 (excellent 81 to 100) |
| CCNc1ccc2nc(Cl)c(NC(=O)NS(=O)(=O)c3nc(OC)cc(OC)n3)n2n1 [Compound No. 3] | 169 to 171 °C | 5 (excellent 81 to 100) | 5 (excellent 81 to 100) | 5 (excellent 81 to 100) | 5 (excellent 81 to 100) | 5 (excellent 81 to 100) | 5 (excellent 81 to 100) |
| COc1cc(OC)nc(NC(=O)NS(=O)(=O)c2c(C)nc3ccc(C(C)C)nn23)n1 [Compound No. 39] | – | 5 (excellent 81 to 100) | 5 (excellent 81 to 100) | 5 (excellent 81 to 100) | 5 (excellent 81 to 100) | 5 (excellent 81 to 100) | 5 (excellent 81 to 100) |

More lines, main results first:

| melting point | SMILES | S Scirpus juncoides var. ohwianus (effect index) [1] | R Lindernia procumbens (Krock.) Philcox (effect index) [2] | R Lindernia dubia subsp. major Pennell (effect index) [3] | S Lindernia dubia subsp. major Pennell (effect index) [4] | S Lindernia procumbens (Krock.) Philcox (effect index) [5] | R Scirpus juncoides var. ohwianus (effect index) [6] |
| --- | --- | --- | --- | --- | --- | --- | --- |
| 178 to 180 °C (dec.) | COc1cc(OC)nc(S(=O)(=O)NC(=O)Nc2c(C)nc3ccc(SC)nn23)n1 [Compound No. 19] | 5 (excellent 81 to 100) | 5 (excellent 81 to 100) | 4 (high 61 to 80) | 5 (excellent 81 to 100) | 5 (excellent 81 to 100) | 5 (excellent 81 to 100) |
| 183 to 185 °C (dec.) | COc1cc(OC)nc(S(=O)(=O)NC(=O)Nc2c(C)nc3ccc(N(C)C)nn23)n1 [Compound No. 14] | 5 (excellent 81 to 100) | 3 (moderate 41 to 60) | 4 (high 61 to 80) | 5 (excellent 81 to 100) | 5 (excellent 81 to 100) | 5 (excellent 81 to 100) |
| 163 to 165 °C | CCSc1ccc2nc(C)c(NC(=O)NS(=O)(=O)c3nc(OC)cc(OC)n3)n2n1 [Compound No. 18] | 5 (excellent 81 to 100) | 5 (excellent 81 to 100) | 5 (excellent 81 to 100) | 5 (excellent 81 to 100) | 5 (excellent 81 to 100) | 5 (excellent 81 to 100) |
| 266 to 267 °C | COc1cc(OC)nc(S(=O)(=O)NC(=O)Nc2c(C(F)(F)F)nc3ccc(SC)nn23)n1 [Compound No. 12] | 5 (excellent 81 to 100) | 3 (moderate 41 to 60) | 5 (excellent 81 to 100) | 5 (excellent 81 to 100) | 5 (excellent 81 to 100) | 5 (excellent 81 to 100) |
| 146 to 148 °C | CCc1nc2ccc(SC)nn2c1NC(=O)NS(=O)(=O)c1nc(OC)cc(OC)n1 [Compound No. 8] | 5 (excellent 81 to 100) | 5 (excellent 81 to 100) | 5 (excellent 81 to 100) | 5 (excellent 81 to 100) | 5 (excellent 81 to 100) | 5 (excellent 81 to 100) |
| 168 to 170 °C (dec.) | CCOc1ccc2nc(C)c(NC(=O)NS(=O)(=O)c3nc(OC)cc(OC)n3)n2n1 [Compound No. 16] | 5 (excellent 81 to 100) | 4 (high 61 to 80) | 5 (excellent 81 to 100) | 5 (excellent 81 to 100) | 5 (excellent 81 to 100) | 5 (excellent 81 to 100) |
| 163 to 165 °C | COc1cc(OC)nc(S(=O)(=O)NC(=O)Nc2c(Cl)nc3ccc(SC)nn23)n1 [Compound No. 26] | 5 (excellent 81 to 100) | 3 (moderate 41 to 60) | 4 (high 61 to 80) | 5 (excellent 81 to 100) | 5 (excellent 81 to 100) | 5 (excellent 81 to 100) |

Reference: patent publication US8399381B2, “Condensed heterocyclic sulfonyl urea compound, a herbicide containing the same, and a method for weed control using the same” (Sumitomo Chemical Company, Limited, priority 2002, dated 2013)
